In patent US5132429A, “Benzotriazole derivatives and fluorescence-emitting reagents thereof” (priority 1988, dated 1992):

Legend:
[1] = target: α1-AG (α1-acid glycoprotein); test: Binding constant of basic drug to α1-AG by displacement of compound 1 (fluorescence probe method, Klotz formula); conditions: 0.1M phosphoric acid buffer pH 7.4; 3×10^-6 M α1-AG; compound 1 as probe
Method: (§1) Two different kinds of solutions, one containing α1 -AG and a compound of this invention listed above, the other containing α1 -AG, the compound of this invention, and a drug, are prepared to measure fluorescence intensity at the excitation. fluorescence wavelength, as shown in Table 2. According to the working curve made beforehand, the binding rate of the compound to α1 -AG in each solution is determined and the binding constant of a drug to α1-AG is calculated from the difference between the binding rates in the presence and the absence of a drug.
(§2) In the fluorescence cell made of quartz with a plug was placed the buffer solution of 0.1M phosphoric acid (2 ml) which pH is 7.4 and containig 1×10^-4 M α1 -AG, to which 5×10^-4 M aqueous solution of the compound 1 was added by 2 μl each with a microcylinder, which was prepared by dissolving about 3 mg of the compound 1 in 1N hydrochloric acid (1 ml), followed by diluting with water to make the total volume 200 times, and the resulting solution was mixed fully to determine fluorescence intensity at 508 nm (excitation wavelength: 418 nm).
(§3) For the buffer solution of 0.1M phosphoric acid (2 ml) which pH is 7.4 and containing 3×10^-6 M α1 -AG, the same procedure as in Example 1 was performed.
As for the other basic drugs shown in Table 3, binding constant were obtained according to the same manner as in Example 11.

α1-AG [2] = conditions: cited from earlier work
[3] = test system: α1-AG (α1-acid glycoprotein); test: Binding of compound to α1-AG by fluorescence titration, Scatchard analysis; conditions: for binding of the compound 1 to α1-AG: pH 7.4
Method: as §2, §3
The binding rate (X) of the compound 1 to α1 -AG was introduced from the following formula (1) [formula]
In this scheme, Fb is fluorescence intensity at some concentration of the compound 1 which was obtained in Experiment 1, Fp is fluorescence intensity at the same concentration of the compound 1 which was obtained in Example 2, and Fo is blank value.
The value introduced from the binding rate at each concentration of the compound 1 was plotted accoding to the formula (2) of Scatchard, whereby the binding parameter of the compound 1 to α1 -AG was obtained.
In this scheme, r is the amount of binding of the compound 1 per α1 -AG (1 mole), n is the number of binding site, Ka is the binding constant of the compound 1, Df is the concentration of the compound 1 which is free form.

α1-AG [4] = test: Fluorescence (excitation and fluorescence wavelength) with α1-AG; format: physicochemical
Method: as §1
Sulfosalicylic acid is added to the sample solution containing α1 -AG to remove coexisting proteins, to which the solution containing a compound is added. The mixed solution is subjected to determination of fluorescence intensity at excitation. fluorescence wavelength as shown in Table 2. According to the working curve on the standard solution of α1 -AG, the concentration of α1-AG in the sample is determined.

Human Serum Albumine = test: Fluorescence (excitation and fluorescence wavelength) with human serum albumin; format: physicochemical
Method: A solution containing a compound is added to a solution containing albumin and the mixed solution is subjected to determination of fluorescence intensity at excitation. fluorescence wavelength as shown in Table 2. According to the working curve on the standard albumin solution made beforehand, the concentration of albumin in the sample solution is determined.

Row | Compound | log Kb (binding constant) [1] | Excitation Wavelength (α1-AG [4]) | Fluorescence Wavelength (α1-AG [4]) | Excitation Wavelength (Human Serum Albumine) | Fluorescence Wavelength (Human Serum Albumine) | further results
1 | CN(C)CCC=C1c2ccccc2CCc2ccccc21 [Amitriptyline] | 5.58 |  |  |  |  | 
2 | CN(C)c1ccc(C(=N)c2ccc(N(C)C)cc2)cc1 [Auramin O] |  |  |  |  |  | binding strength to α1-AG (α1-AG [2]; Y. Sugiyama et al, Biochem. Pharmcol. 34(6), 821-829 (1985)): very weak
3 | CNCCCN1c2ccccc2CCc2ccccc21 [Desipramine] | 4.86 |  |  |  |  | 
4 | COc1ccc([C@@H]2Sc3ccccc3N(CCN(C)C)C(=O)[C@@H]2OC(C)=O)cc1 [Diltiazem] | 5.40 |  |  |  |  | 
5 | CN(C)CCCN1c2ccccc2CCc2ccccc21 [Imipramine] | 5.61 |  |  |  |  | 
6 | COC(=O)C1=C(C)NC(C)=C(C(=O)OCCN(C)Cc2ccccc2)C1c1cccc([N+](=O)[O-])c1 (stereo not shown) [Nicardipine] | 6.78 |  |  |  |  | 
7 | CCC(c1ccccc1)c1c(O)c2ccccc2oc1=O (stereo not shown) [Phenprocoumon] |  |  |  |  |  | wavelength suitable for determination (α1-AG [2]; M. Otagiri et al., J. of Pharmaceutical Sciences 76(8), 646-649 (1987)): short
8 | CC(C)NCC(O)COc1cccc2[nH]ccc12 (stereo not shown) [Pindolol] | 5.33 |  |  |  |  | 
9 | CC(CN1c2ccccc2Sc2ccccc21)N(C)C (stereo not shown) [Promethazine] | 4.94 |  |  |  |  | 
10 | CC(CN(C)C)CN1c2ccccc2CCc2ccccc21 (stereo not shown) [Trimipramine] | 5.54 |  |  |  |  | 

The next lines start with results.

Row | log Kb (binding constant) [1] | Excitation Wavelength (α1-AG [4]) | Fluorescence Wavelength (α1-AG [4]) | Excitation Wavelength (Human Serum Albumine) | Fluorescence Wavelength (Human Serum Albumine) | Compound | further results
11 |  | 418 nm | 508 nm | 415 nm | 505 nm | CCN(CC)c1ccc(-n2nc3cc(N)cc(Cl)c3n2)cc1 [Compound 1, 7-chloro-2-(p-diethylaminophenyl)-2H-benzotriazolyl-5-amine] | n (number of binding site) ([3]; 0.1M phosphoric acid buffer pH 7.4, 3×10^-6 M α1-AG, Scatchard): 0.40; binding of the compound 1 to α1-AG ([3]; 1×10^-4 M α1-AG, ex 418 nm, em 508 nm): all of the compound 1 bound to α1 -AG; binding of the compound 1 to α1-AG ([3]; 3×10^-6 M α1-AG): under an equilibrium condition
12 |  | 396 nm | 482 nm | 385 nm | 480 nm | CNc1ccc(-n2nc3cc(N)cc(Cl)c3n2)cc1 [Compound 2, 7-chloro-2-(p-methylaminophenyl)-2H-benzotriazolyl-5-amine] | 
13 |  | 400 nm | 505 nm | 400 nm | 485 nm | Nc1cc(Cl)c2nn(-c3ccc(Nc4ccccc4)cc3)nc2c1 [Compound 3, 7-chloro-2-(p-anilinophenyl)-2H-benzotriazolyl-5-amine] | 
14 |  | 396 nm | 502 nm | 383 nm | 465 nm | Nc1cc(Cl)c2nn(-c3ccc(N4CCOCC4)cc3)nc2c1 [Compound 4, 7-chloro-2-(p-morpholinophenyl)-2H-benzotriazolyl-5-amine] | 
15 |  | 452 nm | 567 nm | 420 nm | 520 nm | CCOC(=O)c1cc(N)cc2nn(-c3ccc(N(CC)CC)cc3)nc12 [Compound 5, Ethyl 6-amino-2-(p-diethylaminophenyl)-2H-benzotriazole-4-carboxylate] | 
16 | 6.01 |  |  |  |  | COc1ccc2c(c1)N(C[C@H](C)CN(C)C)c1ccccc1S2 [Levomepromazine] | 
